Experimental data published in patent US20220244279A1, “ASSAYS AND METHODS FOR SCREENING FOR CARDIOVASCULAR DISEASE USING LDL SUBCLASSES AND ENDOTHELIAL NITRIC OXIDE/PEROXYNITRITE BALANCE” (Ohio University, priority 2019, published 2022).
“Also recorded” adds a separate entry of the source.

Tested on: human umbilical vein endothelial cells (HUVECs)
Experiment: Effect of eNOS pathway modulators on LDL-stimulated NO and ONOO− release
Format: cell-based
Settings: for ONOO− production after pre-treatment vs control / NO production after pre-treatment vs control: 30 min pre-treatment, then LDL subclass A, B or I 800 μg/mL; for [NO]/[ONOO−] ratio with subclass I: pre-treatment, then subclass I 800 μg/mL; for effect on ratio of [NO]/[ONOO−]: modulators of L-arginine/NO pathway
Protocol: Concurrent measurements of NO and ONOO^− were performed with electrochemical nanosensors (diameter: 200-300 nm). The designs of nanosensors are based on chemically modified carbon-fiber technology. Each of those sensors was made by depositing a sensing material on the tip of the carbon fiber. A conductive film of polymeric nickel (II) tetrakis (3-methoxy-4hydroxy-phenyl) porphyrinic was used for the NO sensor and a polymeric film of Mn (III)-paracyclophanyl-porphyrin was used for the ONOO^− sensor. NO and ONOO^− release from its basal level were measured by using amperometry with time (detection limit of 1 nmol/L and resolution time <50 ms). Each sensor was calibrated by using linear calibration curves from 50 nmol/L to 1000 nmol/L and/or standard addition methods before and after measurements with aliquots of NO or ONOO^− standard solutions, respectively.
Endothelial cells were seeded to 24 well plates and cultured in complete medium until confluent monolayer formed. Then the study was carried out as follows:
A control group was incubated in EBM only. After incubation, endothelial cells were stimulated with direct injection of subclasses A, B and I (800 μg/mL), and the release of NO/ONOO^− was measured with nanosensors.

Row | SMILES | ONOO− production after pre-treatment vs control | [NO]/[ONOO−] ratio with subclass I | NO production after pre-treatment vs control | effect on ratio of [NO]/[ONOO−] | decrease of ONOO− concentration (VAS2870 10 μmol/L, LDL 800 μg/mL)
1 | COC(=O)[C@@H](N)CCCNC(=N)N[N+](=O)[O-] [L-NAME, L-N^G-arginine methyl ester] | diminished | lower than one | – | – | –
2 | N=C(N)NCCC[C@H](N)C(=O)O [L-arginine] | diminished; also recorded: decrease ONOO^− generation | greater than one | increase NO production | favorably increasing the ratio of [NO]/[ONOO^−] | –
3 | c1ccc(Cn2nnc3c(Sc4nc5ccccc5o4)ncnc32)cc1 [VAS2870] | diminished | – | – | – | 20-27 % of control group
4 | C[C@H](O)C(=O)C1=Nc2c(nc(N)[nH]c2=O)NC1 [sepiapterin] | diminished; also recorded: lower level of ONOO^− | greater than one | higher level of NO | favorably increasing the ratio of [NO]/[ONOO^−] | –
